Laboratory results taken from paper PMC9234961 (Journal of Medicinal Chemistry, 2022).
Read-outs that look alike come from different tables or passages of the source.

Columns and labels:
kinases (468) [1] = biological target: kinases (468) (Homo sapiens, UniProt O14976); details: GAK; 1000 nM
kinases (468) [2] = biological target: kinases (468) (Homo sapiens, UniProt P00533); details: EGFR; 1000 nM
kinases (468) [3] = biological target: kinases (468) (Homo sapiens, UniProt P00533, DEL752-759); details: EGFR(S752-I759del); 1000 nM
kinases (468) [4] = biological target: kinases (468) (Homo sapiens, UniProt P00533, T790M); details: EGFR(T790M); 1000 nM
kinases (468) [5] = biological target: kinases (468) (Homo sapiens, UniProt P06213); details: INSR; 1000 nM
kinases (468) [6] = biological target: kinases (468) (Homo sapiens, UniProt P08069); details: IGF1R; 1000 nM
kinases (468) [7] = biological target: kinases (468) (Homo sapiens, UniProt P15056, V600E); details: BRAF(V600E); 1000 nM
kinases (468) [8] = biological target: kinases (468) (Homo sapiens, UniProt P16234); details: PDGFRA; 1000 nM
kinases (468) [9] = biological target: kinases (468) (Homo sapiens, UniProt P19784); details: CSNK2A2; 1000 nM
kinases (468) [10] = biological target: kinases (468) (Homo sapiens, UniProt P29317); details: EPHA2; 1000 nM
kinases (468) [11] = biological target: kinases (468) (Homo sapiens, UniProt P36888, D835V); details: FLT3(D835V); 1000 nM
kinases (468) [12] = biological target: kinases (468) (Homo sapiens, UniProt P42345); details: MTOR; 1000 nM
kinases (468) [13] = biological target: kinases (468) (Homo sapiens, UniProt P48730); details: CSNK1D; 1000 nM
kinases (468) [14] = biological target: kinases (468) (Homo sapiens, UniProt P51812); details: compound concentration 1000 nM
kinases (468) [15] = biological target: kinases (468) (Homo sapiens, UniProt P51817); details: PRKX; 1000 nM
kinases (468) [16] = biological target: kinases (468) (Homo sapiens, UniProt P54760); details: EPHB4; 1000 nM
kinases (468) [17] = biological target: kinases (468) (Homo sapiens, UniProt Q02156); details: PRKCE; 1000 nM
kinases (468) [18] = biological target: kinases (468) (Homo sapiens, UniProt Q02763); details: kinase TIE2 (Entrez TEK); compound concentration 1000 nM
kinases (468) [19] = biological target: kinases (468) (Homo sapiens, UniProt Q08345); details: DDR1; 1000 nM
kinases (468) [20] = biological target: kinases (468) (Homo sapiens, UniProt Q13131); details: AMPK-alpha1 (PRKAA1); 1000 nM
kinases (468) [21] = biological target: kinases (468) (Homo sapiens, UniProt Q13233); details: MAP3K1; 1000 nM
kinases (468) [22] = biological target: kinases (468) (Homo sapiens, UniProt Q15139); details: PRKD1; 1000 nM
kinases (468) [23] = biological target: kinases (468) (Homo sapiens, UniProt Q15208); details: NDR1 (STK38); 1000 nM
kinases (468) [24] = biological target: kinases (468) (Homo sapiens, UniProt Q15835); details: GRK1; 1000 nM
kinases (468) [25] = biological target: kinases (468) (Homo sapiens, UniProt Q6XUX3); details: kinase RIPK5 (Entrez DSTYK); compound concentration 1000 nM
kinases (468) [26] = biological target: kinases (468) (Homo sapiens, UniProt Q8IW41); details: MAPKAPK5; 1000 nM
kinases (468) [27] = biological target: kinases (468) (Homo sapiens, UniProt Q8WU08); details: kinase YANK1 (Entrez STK32A); compound concentration 1000 nM
kinases (468) [28] = biological target: kinases (468) (Homo sapiens, UniProt Q92630); details: DYRK2; 1000 nM
kinases (468) [29] = biological target: kinases (468) (Homo sapiens, UniProt Q92772); details: CDKL2; 1000 nM
kinases (468) [30] = biological target: kinases (468) (Homo sapiens, UniProt Q9C098); details: DCAMKL3 (DCLK3); 1000 nM
kinases (468) [31] = biological target: kinases (468) (Homo sapiens, UniProt Q9H0K1); details: kinase SIK2 (Entrez SIK2); compound concentration 1000 nM
kinases (468) [32] = biological target: kinases (468) (Homo sapiens, UniProt Q9HC98); details: NEK6; 1000 nM
kinases (468) [33] = biological target: kinases (468) (Homo sapiens, UniProt Q9P289); details: MST4; 1000 nM
kinases (468) [34] = biological target: kinases (468) (Homo sapiens, UniProt Q9Y3S1); details: kinase WNK2 (Entrez WNK2); compound concentration 1000 nM
kinases (468) (Homo sapiens, UniProt Q9Y3S1), sequence (Q9Y3S1 whole entry): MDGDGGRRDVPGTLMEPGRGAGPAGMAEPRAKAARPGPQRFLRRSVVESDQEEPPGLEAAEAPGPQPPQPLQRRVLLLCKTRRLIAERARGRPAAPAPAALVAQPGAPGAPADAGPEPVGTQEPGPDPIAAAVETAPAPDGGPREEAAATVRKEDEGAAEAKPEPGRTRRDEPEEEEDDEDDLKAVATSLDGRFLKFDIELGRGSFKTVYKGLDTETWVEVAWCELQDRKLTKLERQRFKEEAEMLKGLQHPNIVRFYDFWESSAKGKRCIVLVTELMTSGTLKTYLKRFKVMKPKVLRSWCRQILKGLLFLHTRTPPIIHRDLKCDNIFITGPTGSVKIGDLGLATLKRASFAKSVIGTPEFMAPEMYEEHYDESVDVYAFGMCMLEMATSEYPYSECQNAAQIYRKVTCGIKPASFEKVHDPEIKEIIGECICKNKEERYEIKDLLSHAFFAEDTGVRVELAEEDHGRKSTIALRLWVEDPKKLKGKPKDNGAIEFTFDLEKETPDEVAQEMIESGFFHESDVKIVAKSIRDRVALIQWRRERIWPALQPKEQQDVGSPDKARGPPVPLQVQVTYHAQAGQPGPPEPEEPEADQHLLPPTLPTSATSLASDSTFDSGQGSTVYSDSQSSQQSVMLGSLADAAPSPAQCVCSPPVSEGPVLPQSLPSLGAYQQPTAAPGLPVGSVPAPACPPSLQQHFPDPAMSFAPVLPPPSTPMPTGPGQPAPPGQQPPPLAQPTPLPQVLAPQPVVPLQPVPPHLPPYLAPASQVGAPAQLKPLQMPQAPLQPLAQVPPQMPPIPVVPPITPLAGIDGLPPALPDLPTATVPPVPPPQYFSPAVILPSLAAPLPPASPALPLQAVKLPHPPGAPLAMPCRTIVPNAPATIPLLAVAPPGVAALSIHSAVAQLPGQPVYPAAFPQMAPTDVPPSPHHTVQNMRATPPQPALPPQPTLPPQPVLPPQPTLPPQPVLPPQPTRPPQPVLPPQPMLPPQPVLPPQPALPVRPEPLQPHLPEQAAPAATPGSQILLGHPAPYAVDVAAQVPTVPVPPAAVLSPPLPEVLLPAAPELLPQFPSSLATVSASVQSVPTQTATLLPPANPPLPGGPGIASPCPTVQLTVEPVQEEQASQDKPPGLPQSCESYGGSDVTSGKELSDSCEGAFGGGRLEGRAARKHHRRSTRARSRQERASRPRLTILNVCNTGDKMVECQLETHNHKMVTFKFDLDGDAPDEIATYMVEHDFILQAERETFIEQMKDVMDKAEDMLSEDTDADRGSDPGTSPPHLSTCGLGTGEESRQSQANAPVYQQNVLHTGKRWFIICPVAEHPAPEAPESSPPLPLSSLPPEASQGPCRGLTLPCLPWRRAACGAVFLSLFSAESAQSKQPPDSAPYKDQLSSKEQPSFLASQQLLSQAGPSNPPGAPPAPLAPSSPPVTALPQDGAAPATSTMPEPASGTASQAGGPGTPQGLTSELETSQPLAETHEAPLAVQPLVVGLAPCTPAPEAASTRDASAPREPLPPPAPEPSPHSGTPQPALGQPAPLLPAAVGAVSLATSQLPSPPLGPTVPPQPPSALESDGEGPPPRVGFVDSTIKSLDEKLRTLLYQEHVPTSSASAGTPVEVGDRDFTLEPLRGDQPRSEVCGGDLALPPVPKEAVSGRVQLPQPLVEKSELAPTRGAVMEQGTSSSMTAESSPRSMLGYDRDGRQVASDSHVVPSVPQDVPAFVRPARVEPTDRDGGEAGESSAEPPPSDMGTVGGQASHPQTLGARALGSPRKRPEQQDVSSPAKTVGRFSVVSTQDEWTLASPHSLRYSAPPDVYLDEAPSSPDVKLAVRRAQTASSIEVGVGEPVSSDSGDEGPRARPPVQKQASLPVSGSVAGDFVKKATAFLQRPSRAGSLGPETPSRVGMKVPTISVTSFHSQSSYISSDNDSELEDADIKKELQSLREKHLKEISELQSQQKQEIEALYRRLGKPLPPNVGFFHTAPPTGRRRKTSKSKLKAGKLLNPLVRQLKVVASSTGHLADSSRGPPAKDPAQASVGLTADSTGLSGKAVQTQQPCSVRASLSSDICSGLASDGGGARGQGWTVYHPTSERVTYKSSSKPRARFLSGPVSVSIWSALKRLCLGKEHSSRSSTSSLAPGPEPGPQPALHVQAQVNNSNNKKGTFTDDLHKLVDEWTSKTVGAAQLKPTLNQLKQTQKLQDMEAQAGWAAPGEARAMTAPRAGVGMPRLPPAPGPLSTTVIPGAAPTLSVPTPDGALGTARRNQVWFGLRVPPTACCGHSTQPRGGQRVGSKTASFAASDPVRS

kinases (468) (Homo sapiens, UniProt P51812), sequence (P51812 whole entry): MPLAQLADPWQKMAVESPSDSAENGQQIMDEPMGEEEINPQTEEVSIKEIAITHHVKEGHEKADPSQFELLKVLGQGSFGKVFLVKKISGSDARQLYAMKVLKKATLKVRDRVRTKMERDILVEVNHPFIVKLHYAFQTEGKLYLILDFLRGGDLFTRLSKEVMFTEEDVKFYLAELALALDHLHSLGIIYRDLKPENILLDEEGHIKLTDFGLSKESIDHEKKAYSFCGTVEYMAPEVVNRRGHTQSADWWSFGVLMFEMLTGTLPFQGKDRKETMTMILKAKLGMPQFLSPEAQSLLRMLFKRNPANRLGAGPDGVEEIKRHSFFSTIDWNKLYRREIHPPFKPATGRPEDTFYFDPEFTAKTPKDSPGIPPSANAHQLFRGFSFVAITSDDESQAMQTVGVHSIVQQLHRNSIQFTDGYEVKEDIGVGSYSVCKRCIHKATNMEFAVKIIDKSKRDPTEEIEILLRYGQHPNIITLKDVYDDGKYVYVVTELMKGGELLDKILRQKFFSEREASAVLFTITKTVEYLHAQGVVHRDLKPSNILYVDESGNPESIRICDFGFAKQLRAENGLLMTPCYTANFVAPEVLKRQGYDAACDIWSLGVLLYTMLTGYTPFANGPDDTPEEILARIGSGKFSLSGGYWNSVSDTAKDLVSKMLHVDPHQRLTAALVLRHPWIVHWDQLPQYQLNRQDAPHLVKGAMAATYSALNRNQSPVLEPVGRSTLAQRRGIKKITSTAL
kinases (468) (Homo sapiens, UniProt Q9P289), sequence (Q9P289 whole entry): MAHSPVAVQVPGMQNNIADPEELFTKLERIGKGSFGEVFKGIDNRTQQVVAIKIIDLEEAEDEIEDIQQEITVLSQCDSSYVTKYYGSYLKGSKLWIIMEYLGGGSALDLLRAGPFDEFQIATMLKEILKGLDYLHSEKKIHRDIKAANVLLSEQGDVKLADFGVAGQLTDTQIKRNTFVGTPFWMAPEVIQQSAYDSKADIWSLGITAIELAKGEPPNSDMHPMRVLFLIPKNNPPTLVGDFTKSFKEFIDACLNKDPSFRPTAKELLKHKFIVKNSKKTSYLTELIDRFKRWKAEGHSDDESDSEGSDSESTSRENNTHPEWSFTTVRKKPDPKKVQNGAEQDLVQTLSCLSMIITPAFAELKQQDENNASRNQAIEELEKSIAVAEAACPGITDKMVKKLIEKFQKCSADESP
kinases (468) (Homo sapiens, UniProt Q15835), sequence (Q15835 whole entry): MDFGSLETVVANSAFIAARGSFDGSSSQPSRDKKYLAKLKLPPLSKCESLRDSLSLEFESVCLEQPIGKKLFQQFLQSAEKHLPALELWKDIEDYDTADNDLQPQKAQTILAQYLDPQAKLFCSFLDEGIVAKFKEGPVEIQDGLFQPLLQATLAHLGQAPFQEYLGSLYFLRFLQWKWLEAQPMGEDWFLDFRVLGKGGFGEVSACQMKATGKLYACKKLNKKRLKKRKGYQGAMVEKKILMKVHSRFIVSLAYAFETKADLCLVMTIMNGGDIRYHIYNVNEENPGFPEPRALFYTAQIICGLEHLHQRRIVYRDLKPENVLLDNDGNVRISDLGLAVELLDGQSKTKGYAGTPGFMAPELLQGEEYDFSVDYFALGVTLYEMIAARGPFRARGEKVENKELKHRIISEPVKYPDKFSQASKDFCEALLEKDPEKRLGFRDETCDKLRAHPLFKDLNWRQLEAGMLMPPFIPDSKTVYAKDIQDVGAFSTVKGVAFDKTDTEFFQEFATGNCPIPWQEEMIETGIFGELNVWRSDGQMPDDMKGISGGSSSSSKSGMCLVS
kinases (468) (Homo sapiens, UniProt Q15208), sequence (Q15208 whole entry): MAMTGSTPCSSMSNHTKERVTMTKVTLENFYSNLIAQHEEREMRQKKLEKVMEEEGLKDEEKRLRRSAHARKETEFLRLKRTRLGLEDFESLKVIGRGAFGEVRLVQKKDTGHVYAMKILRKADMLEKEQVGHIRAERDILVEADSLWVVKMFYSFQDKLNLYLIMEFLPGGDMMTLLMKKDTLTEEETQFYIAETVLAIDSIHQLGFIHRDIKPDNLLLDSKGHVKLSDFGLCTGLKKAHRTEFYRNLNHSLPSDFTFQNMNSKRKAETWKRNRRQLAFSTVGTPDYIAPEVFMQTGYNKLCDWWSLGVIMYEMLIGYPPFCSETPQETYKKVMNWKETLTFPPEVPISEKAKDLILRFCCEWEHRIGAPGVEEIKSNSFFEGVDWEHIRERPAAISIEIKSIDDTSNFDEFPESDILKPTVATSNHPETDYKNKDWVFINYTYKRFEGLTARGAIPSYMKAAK
kinases (468) (Homo sapiens, UniProt P48730), sequence (P48730 whole entry): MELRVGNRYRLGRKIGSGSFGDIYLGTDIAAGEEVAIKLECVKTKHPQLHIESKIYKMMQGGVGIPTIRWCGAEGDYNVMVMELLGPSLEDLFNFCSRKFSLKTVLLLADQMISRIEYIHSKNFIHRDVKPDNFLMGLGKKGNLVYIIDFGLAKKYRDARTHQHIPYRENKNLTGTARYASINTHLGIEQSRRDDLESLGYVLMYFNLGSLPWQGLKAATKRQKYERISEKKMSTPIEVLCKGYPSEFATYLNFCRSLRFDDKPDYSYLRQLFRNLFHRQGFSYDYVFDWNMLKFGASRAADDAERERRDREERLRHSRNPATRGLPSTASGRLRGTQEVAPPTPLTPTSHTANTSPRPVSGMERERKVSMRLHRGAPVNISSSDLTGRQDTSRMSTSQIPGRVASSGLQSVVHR

Structure (SMILES): C[C@H]1C[C@@H](O)CN(c2ncc(Cl)c(Nc3ccc4c(c3)c3c(c(=O)n4C)OCC(F)(F)[C@H](C4CC4)N3)n2)C1 [CCT373566_9A]
- Percent Control (kinases (468) [1]): 86%
- Percent Control (kinases (468) [2]): 100%
- Percent Control (kinases (468) [3]): 86%
- Percent Control (kinases (468) [4]): 100%
- Percent Control (kinases (468) [5]): 98%
- Percent Control (kinases (468) [6]): 100%
- Percent Control (kinases (468) [7]): 100%
- Percent Control (kinases (468) [8]): 95%
- Percent Control (kinases (468) [9]): 100%
- Percent Control (kinases (468) [10]): 99%
- Percent Control (kinases (468) [11]): 90%
- Percent Control (kinases (468) [12]): 87%
- Percent Control (kinases (468) [13]): 99%
- Percent Control (kinases (468) [14]; kinase RSK2(Kin.Dom.1-N-terminal) (Entrez RPS6KA3)): 100%
- Percent Control (kinases (468) [14]; kinase RSK2(Kin.Dom.2-C-terminal) (Entrez RPS6KA3)): 100%
- Percent Control (kinases (468) [15]): 100%
- Percent Control (kinases (468) [16]): 100%
- Percent Control (kinases (468) [17]): 98%
- Percent Control (kinases (468) [18]): 100%
- Percent Control (kinases (468) [19]): 100%
- Percent Control (kinases (468) [20]): 100%
- Percent Control (kinases (468) [21]): 93%
- Percent Control (kinases (468) [22]): 98%
- Percent Control (kinases (468) [23]): 100%
- Percent Control (kinases (468) [24]): 100%
- Percent Control (kinases (468) [25]): 90%
- Percent Control (kinases (468) [26]): 100%
- Percent Control (kinases (468) [27]): 98%
- Percent Control (kinases (468) [28]): 91%
- Percent Control (kinases (468) [29]): 100%
- Percent Control (kinases (468) [30]): 100%
- Percent Control (kinases (468) [31]): 98%
- Percent Control (kinases (468) [32]): 100%
- Percent Control (kinases (468) [33]): 100%
- Percent Control (kinases (468) [34]): 100%
